In PMC10525438 (2023):

Experiments:
[1] = system: h18-Ψ (RNA, rRNA, pseudouridine at 516 (E. coli numbering; residue 6 of the 30-nt model)) CUCCGUGCCAGCAGCCGCGGUAAUACGGAG; assay: CD titration at 265 nm; details: 15 mM KCl, 4 mM MgCl2; 20 mM potassium cacodylate pH 7.0, 30 °C; 5 µM RNA (Methods print a different CD buffer, pH 7.6)
[2] = system: h18-U (RNA, rRNA) CUCCGUGCCAGCAGCCGCGGUAAUACGGAG; assay: CD titration at 265 nm; details: 15 mM KCl, 4 mM MgCl2; 20 mM potassium cacodylate pH 7.0, 30 °C; 5 µM RNA (Methods print a different CD buffer, pH 7.6)

CN[C@@H]1[C@H](O[C@H]2[C@H](O[C@H]3[C@H](O)[C@@H](O)[C@H](N=C(N)N)[C@@H](O)[C@@H]3N=C(N)N)O[C@@H](C)[C@]2(O)C=O)O[C@@H](CO)[C@H](O)[C@H]1O
Kd [1]: 23 ± 3 µM | Kd [2]: 63 ± 1 µM
